Literature values, collected in patent publication US20070297991A1, “NEURAL CONDUIT AGENT DIS[…] SMOKING CESSATION AND OTHER APPLICATIONS” (MINU, L.L.C., priority 2006, published 2007).

Conditions: in vivo

CN1CCCC1c1cccnc1 (stereo not shown) [nicotine]
plasma half-life: approximately two
